Patent publication US20240217936A1, “5-BENZY[…] AND PREPARATION METHOD THEREFOR AND USE THEREOF” (WEST CHINA HOSPITAL, SICHUAN UNIVERSITY, priority 2021, published 2024)
Where a name gives a salt, the structure may show the parent alone.

Key:
Male SD rats [1] = experiment: Sedative and hypnotic effects after oral administration (gavage, righting reflex); format: in vivo, rat; parameters: key to Onset time / Duration: —: Disappearance of righting reflex was not observed; details: for Onset time / Duration: gavage, 0.16 μmoL/kg; for Onset time: disappearance of righting reflex; for Duration: until recovery of righting reflex
Protocol: Each test drug was administered by gavage, at a dosage of 0.16 μmoL/kg for each drug. After gavage, the disappearance of the righting reflex was used as a sign of the hypnotic effect induced by the drug, and the recovery of the righting reflex was used as a sign of drug failure. The onset time and duration of the drug were observed.

[2] = Degradation of prodrug in rat plasma (release of dexmedetomidine, HPLC); format: in vitro ADME; details: 37° C.
Protocol: The test prodrug was formulated as a 1 mg/mL of physiological saline solution, and then 100 μL of the prodrug solution was added to 900 μL of rat plasma. The test solution was vortexed for 30 s before incubation at 37° C. 50 μL of drug-containing plasma was collected at 0.5 min, 1 min, 2 min, 3 min, 5 min, 10 min, 15 min, 20 min, 30 min, and 60 min, respectively, to which was immediately added 150 μL of acetonitrile to terminate the enzymatic reaction, followed by adding the solution of internal standard telmisartan in methanol (30 μL, 20 μg/mL). Then, the resultant solution was centrifuged at 20000 rpm and 4° C. for 10 min. 100 μL of the supernatant was injected for detection by HPLC, and the concentration of dexmedetomidine was determined by an internal standard method. The degradation rate of the prodrug was calculated based on the concentration of dexmedetomidine. The chromatographic conditions are: Swell XDB C18 column (150 mm×4.6 mm, 5 μm); column temperature 30° C.; using gradient elution (see Table 1), mobile phase A: methanol, mobile phase B: 0.1% trifluoroacetic acid in water, and mobile phase C: acetonitrile; detection wavelength: 220 nm; flow rate: 1.0 mL/min; injection volume: 30 μL; retention time: 4.7 minutes for dexmedetomidine and 6.7 minutes for internal standard telmisartan. The linear range of dexmedetomidine: 2.5-100 μg/mL. Instruments: Waters 2695 high-performance liquid chromatograph, Waters 2996 photodiode array detector.

Male SD rats [3] = experiment: Blood pressure change after tail vein injection (mean arterial pressure); details: dosage 2× ED50, injection within 15 seconds, 60 min recording, rats under isoflurane
Protocol: Male SD rats weighing 250-300 g were randomly divided into groups, with 10 rats in each group. General anesthesia was maintained by inhaling isoflurane. By intubating via femoral artery, blood pressure was monitored using the BL-420N biological signal collection and analysis system. minutes after blood pressure stabilization, the baseline mean arterial pressure (MAP0) was measured. Subsequently, the physiological saline solution of each test drug was injected via the tail vein (the dosage of each drug was the same as that in Experiment example 2, with a unified injection […] volume of 1 mL). […] All prodrug molecules were injected within 15 seconds. After injection of each drug, the change in blood pressure was continuously recorded for 60 min. […] The difference MAPΔ+ between the baseline mean arterial pressure (MAP0) and the highest mean arterial pressure (MAPmax) during the 60 min measurement time was calculated; the difference MAPΔ− between the baseline mean arterial pressure (MAP0) and the lowest mean arterial pressure (MAPmin) during the 60 min measurement time was also obtained; both of the difference values were used to calculate the maximum increase rate of mean arterial pressure +Δ%=MAPΔ+/MAP0*100% and the maximum decrease rate of mean arterial pressure −Δ%=MAPΔ−/MAP0*100%, respectively. The maximum increase rate of mean arterial pressure +Δ% and the maximum decrease rate −Δ% reflect the degree of blood pressure change that the body experienced after administration. The larger the value, the greater the blood pressure change that the body experienced.

Male SD rats [4] = experiment: Hypnotic effect after tail vein injection (loss of righting reflex); format: in vivo, rat; details: for ED50: Rattus norvegicus, 50% of the dose for the disappearance of righting reflex in rats, tail vein injection; for Onset time: tail vein injection of 2× ED50, loss of righting reflex; for Onset time / Duration: rats; for Duration: tail vein injection of 2× ED50, until recovery of righting reflex
Protocol: Male SD rats, weighing 250-300 g, were randomly divided into groups, with 10 rats in each group. […] The onset times and the duration of hypnosis were recorded.

SMILES | Onset time (Male SD rats [1]) | Duration (Male SD rats [1]) | Degradation rate of prodrug % ([2]; 0.5 min) | Degradation rate of prodrug % ([2]; 1 min) | Degradation rate of prodrug % ([2]; 2 min) | Degradation rate of prodrug % ([2]; 3 min) | Degradation rate of prodrug % ([2]; 5 min) | +Δ % (The maximum increase rate of blood pressure) (Male SD rats [3]) | −Δ % (The maximum decrease rate of blood pressure) (Male SD rats [3]) | ED50 (Male SD rats [4]) | Onset time (Male SD rats [4]) | Duration (Male SD rats [4]) | Degradation rate of prodrug % ([2]; 10 min) | Degradation rate of prodrug % ([2]; 15 min) | Degradation rate of prodrug % ([2]; 20 min) | Degradation rate of prodrug % ([2]; 30 min) | Degradation rate of prodrug % ([2]; 60 min) | hypnotic effect by oral administration (Male SD rats [1]; equimolar doses, oral)
CCC(=O)OCn1cnc([C@@H](C)c2cccc(C)c2C)c1 [Compound 10] | 13 ± 6 min | 15 ± 7 min |  |  |  |  |  |  |  |  |  |  |  |  |  |  |  | 
Cc1cccc([C@H](C)c2cn(C(=O)OCC(C)C)cn2)c1C [Compound 4-HCl] | 14 ± 8 min | 20 ± 13 min | 31% | 86% | 97% | 100% | 100% | 34 ± 14% | 38 ± 9% | 0.038 mg/kg | 2.3 ± 0.9 min | 44 ± 8 min |  |  |  |  |  | 
CC(=O)OCn1cnc([C@@H](C)c2cccc(C)c2C)c1 [Compound 1-HCl] | 15 ± 6 min | 17 ± 8 min | 33% | 68% | 95% | 100% |  | *25 ± 12% | 43 ± 10% | 0.035 mg/kg | 3.9 ± 1.5 min | 42 ± 9 min |  |  |  |  |  | 
COC(=O)OCn1cnc([C@@H](C)c2cccc(C)c2C)c1 [Compound 13] | 11 ± 5 min | 21 ± 9 min |  |  |  |  |  |  |  |  |  |  |  |  |  |  |  | 
Cc1cccc([C@H](C)c2cn(COP(=O)(OC(C)(C)C)OC(C)(C)C)cn2)c1C [Compound 12, (S)-(4-(1-(2,3-dimethylphenyl)ethyl)-1H-imidazo-1-yl)methyl di-tert-butyl phosphate] | 16 ± 7 min | 11 ± 4 min |  |  |  |  |  |  |  |  |  |  |  |  |  |  |  | 
CCC(=O)OCn1cnc([C@@H](C)c2cccc(C)c2C)c1 [Compound 10-HCl] |  |  | 57% | 82% | 85% | 97% | 100% | 31 ± 7% | 40 ± 8% | 0.028 mg/kg | 2.3 ± 1.1 min | 48 ± 12 min |  |  |  |  |  | 
Cc1cccc([C@H](C)c2cn(COC(=O)OC(C)C)cn2)c1C [Compound 7] | 9 ± 4 min | 22 ± 8 min |  |  |  |  |  |  |  |  |  |  |  |  |  |  |  | 
CCOC(=O)CCC(=O)OCn1cnc([C@@H](C)c2cccc(C)c2C)c1 [Compound 27-HCl] |  |  | 52% | 58% | 66% |  | 78% | *25 ± 13% | 41 ± 9% | 0.019 mg/kg | 1.4 ± 0.5 min | 52 ± 9 min | 86% | 97% | 100% |  |  | 
Cc1cccc([C@H](C)c2cn(COC(=O)OC3CC3)cn2)c1C [Compound 22-HCl] |  |  | 91% | 97% | 100% |  |  | 34 ± 7% | 39 ± 6% | 0.024 mg/kg | 1.5 ± 0.2 min | 48 ± 9 min |  |  |  |  |  | 
COC(=O)CCC(=O)OCn1cnc([C@@H](C)c2cccc(C)c2C)c1 [Compound 25-HCl] |  |  | 51% | 56% | 59% | 64% | 67% | 31 ± 14% | 37 ± 7% | 0.041 mg/kg | 3.1 ± 0.9 min | 63 ± 15 min | 68% | 69% | 72% | 76% | 79% | 
Cc1cccc([C@H](C)c2cn(COC(=O)OC(C)C)cn2)c1C [Compound 7-HCl] |  |  | 22% | 46% | 67% | 88% | 97% | *17 ± 8% | 37 ± 8% | 0.036 mg/kg | 4.6 ± 1.3 min | 39 ± 11 min | 100% |  |  |  |  | 
COC(=O)COC(=O)OCn1cnc([C@@H](C)c2cccc(C)c2C)c1 [Compound 23] | 28 ± 5 min | 8 ± 2 min |  |  |  |  |  |  |  |  |  |  |  |  |  |  |  | 
Cc1cccc([C@H](C)c2c[nH]cn2)c1C.Cl [Dexmedetomidine hydrochloride, reference compound] | — | — |  |  |  |  |  |  |  | 0.018 mg/kg | 1.5 ± 0.5 min | 53 ± 11 min |  |  |  |  |  | could not produce a hypnotic effect
CC(=O)OC(C)n1cnc([C@@H](C)c2cccc(C)c2C)c1 (stereo partly shown) [Compound 17] | 23 ± 5 min | 9 ± 4 min |  |  |  |  |  |  |  |  |  |  |  |  |  |  |  | 
